Measured values reported in patent US12110305B2, “Prodrugs of phosphonamide nucleotide analogues and their pharmaceutical use” (priority 2020, dated 2024).

Tested on: HIV-1 (IIIB)
Assay: Antiviral (HIV) assay in MT-4 cells
Assay type: cell-based
Details: Human immunodeficiency virus 1, MT4, 120 h; HIV-1 IIIB in MT-4 cells, 5 days incubation, Cell Titer Glo; average of at least two independent experiments
Outline: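 MT-4 cells, infected with HIV-1 IIIB (1:250 dilution of concentrated stock) or mock-infected, were exposed to 1:3 serially diluted compounds in RPMI with 10% FBS. After 5 days at 37° C., CellTiter-Glo luminescence was read. EC50 = concentration causing […], from sigmoidal dose-response fits.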

EC50	Compound
> 500 nM	CCCCCCOC(=O)C(C)(C)NP(=O)(CO[C@H](C)Cn1cnc2c(N)ncnc21)NC(C)(C)C(=O)OCC1(F)CC1 (stereo partly drawn) [Example 78, (1-Fluorocyclopropyl)methyl 2-((((((R)-1-(6-amino-9H-purin-9-yl)propan-2-yl)oxy)methyl)((1-(hexyloxy)-2-methyl-1-oxopropan-2-yl)amino)phosphoryl)amino)-2-methylpropanoate]
5 nM	C[C@H](Cn1cnc2c(N)ncnc21)OCP(=O)(NC(C)(C)C(=O)OC1CC2(CCCCC2)C1)NC(C)(C)C(=O)OC1CC2(CCCCC2)C1 (stereo partly drawn) [Example 86, Di(spiro[3.5]nonan-2-yl) 2,2′-(((((1-(6-amino-9H-purin-9-yl)propan-2-yl)oxy)methyl)phosphoryl)bis(azanediyl))(R)-bis(2-methylpropanoate)]
6 nM	C[C@H](Cn1cnc2c(N)ncnc21)OCP(=O)(NC(C)(C)C(=O)OC1CCCCC1)NC(C)(C)C(=O)OC1CCCCC1 [Example 40, Dicyclohexyl 2,2′-(((((1-(6-amino-9H-purin-9-yl)propan-2-yl)oxy)methyl)phosphoryl)bis(azanediyl))(R)-bis(2-methylpropanoate)]
6 nM	C[C@H](Cn1cnc2c(N)ncnc21)OCP(=O)(NC(C)(C)C(=O)OCC1CCCCCC1)NC(C)(C)C(=O)OCC1CCCCCC1 [Example 89, Bis(cycloheptylmethyl) 2,2′-(((((1-(6-amino-9H-purin-9-yl)propan-2-yl)oxy)methyl)phosphoryl)bis(azanediyl))(R)-bis(2-methylpropanoate)]
7 nM	C[C@H](Cn1cnc2c(N)ncnc21)OCP(=O)(NC(C)(C)C(=O)OC1CCC1)NC(C)(C)C(=O)OC1CCC1 [Example 47, Dicyclobutyl 2,2′-(((((1-(6-amino-9H-purin-9-yl)propan-2-yl)oxy)methyl)phosphoryl)bis(azanediyl))(R)-bis(2-methylpropanoate)]
28 nM	C[C@H](Cn1cnc2c(N)ncnc21)OCP(=O)(NC(C)(C)C(=O)OC1CCC2(CCCC2)CC1)NC(C)(C)C(=O)OC1CCC2(CCCC2)CC1 (stereo partly drawn) [Example 61, Di(spiro[4.5]decan-8-yl) 2,2′-(((((1-(6-amino-9H-purin-9-yl)propan-2-yl)oxy)methyl)phosphoryl)bis(azanediyl))(R)-bis(2-methylpropanoate)]
> 500 nM	CCCCCCOC(=O)C(C)(C)NP(=O)(CO[C@H](C)Cn1cnc2c(N)ncnc21)NC(C)(C)C(=O)OCC12CC(C1)C2 (stereo partly drawn) [Example 77, Bicyclo[1.1.1]pentan-1-ylmethyl 2-((((((R)-1-(6-amino-9H-purin-9-yl)propan-2-yl)oxy)methyl)((1-(hexyloxy)-2-methyl-1-oxopropan-2-yl)amino)phosphoryl)amino)-2-methylpropanoate]
7 nM	C[C@H](Cn1cnc2c(N)ncnc21)OCP(=O)(NC(C)(C)C(=O)OC1CCC2(CCC2)CC1)NC(C)(C)C(=O)OC1CCC2(CCC2)CC1 (stereo partly drawn) [Example 63, Di(spiro[3.5]nonan-7-yl) 2,2′-(((((1-(6-amino-9H-purin-9-yl)propan-2-yl)oxy)methyl)phosphoryl)bis(azanediyl))(R)-bis(2-methylpropanoate)]
5 nM	CC(C)COC(=O)C(C)(C)NP(=O)(CO[C@H](C)Cn1cnc2c(N)ncnc21)NC(C)(C)C(=O)OCC(C)C [Example 35, Diisobutyl 2,2′-(((((1-(6-amino-9H-purin-9-yl)propan-2-yl)oxy)methyl)phosphoryl)bis(azanediyl))(R)-bis(2-methylpropanoate)]

Second part, the molecule before the results:

Compound	EC50
CCCCCCOC(=O)C(C)(C)NP(=O)(CO[C@H](C)Cn1cnc2c(NC(=O)CCC)ncnc21)NC(C)(C)C(=O)OCCCCCC [Example 29, Dihexyl 2,2′-(((((1-(6-butyramido-9H-purin-9-yl)propan-2-yl)oxy)methyl)phosphoryl)bis(azanediyl))(R)-bis(2-methylpropanoate)]	16 nM
CCCC(CCC)COC(=O)C(C)(C)NP(=O)(CO[C@H](C)Cn1cnc2c(N)ncnc21)NC(C)(C)C(=O)OCC(CCC)CCC [Example 69, Bis(2-propylpentyl) 2,2′-(((((1-(6-amino-9H-purin-9-yl)propan-2-yl)oxy)methyl)phosphoryl)bis(azanediyl))(R)-bis(2-methylpropanoate)]	24 nM
CCCCCCOC(=O)C(C)(C)NP(=O)(CO[C@H](C)Cn1cnc2c(=N)n(Cc3oc(=O)oc3C)cnc21)NC(C)(C)C(=O)OCCCCCC [Example 83, Dihexyl 2,2′-(((((1-(6-imino-1-((5-methyl-2-oxo-1,3-dioxol-4-yl)methyl)-1,6-dihydro-9H-purin-9-yl)propan-2-yl)oxy)methyl)phosphoryl)bis(azanediyl))(R)-bis(2-methylpropanoate)]	6 nM
CC(C)CCOC(=O)C(C)(C)NP(=O)(CO[C@H](C)Cn1cnc2c(N)ncnc21)NC(C)(C)C(=O)OCCC(C)C [Example 6, Diisopentyl 2,2′-(((((1-(6-amino-9H-purin-9-yl)propan-2-yl)oxy)methyl)phosphoryl)bis(azanediyl))(R)-bis(2-methylpropanoate)]	2 nM
CCCCCCOC(=O)C(C)(C)NP(=O)(CO[C@H](C)Cn1cnc2c(NCc3oc(=O)oc3C)ncnc21)NC(C)(C)C(=O)OCCCCCC [Example 82, Dihexyl 2,2′-(((((1-(6-(((5-methyl-2-oxo-1,3-dioxol-4-yl)methyl)amino)-9H-purin-9-yl)propan-2-yl)oxy)methyl)phosphoryl)bis(azanediyl))(R)-bis(2-methylpropanoate)]	345 nM
CC(C)CCCCOC(=O)C(C)(C)NP(=O)(CO[C@H](C)Cn1cnc2c(N)ncnc21)NC(C)(C)C(=O)OCCCCC(C)C [Example 68, Bis(5-methylhexyl) 2,2′-(((((1-(6-amino-9H-purin-9-yl)propan-2-yl)oxy)methyl)phosphoryl)bis(azanediyl))(R)-bis(2-methylpropanoate)]	9 nM
C[C@H](Cn1cnc2c(N)ncnc21)OCP(=O)(NC(C)(C)C(=O)O[C@H]1C[C@@H](c2ccccc2)C1)NC(C)(C)C(=O)O[C@H]1C[C@@H](c2ccccc2)C1 [Example 85, Bis((1s,3S)-3-phenylcyclobutyl) 2,2′-((((((R)-1-(6-amino-9H-purin-9-yl)propan-2-yl)oxy)methyl)phosphoryl)bis(azanediyl))bis(2-methylpropanoate)]	5 nM
CCCCCCOC(=O)C(C)(C)NP(=O)(CO[C@H](C)Cn1cnc2c(N)ncnc21)NC1(C(=O)OCCCCCC)CCC1 (stereo partly drawn) [Example 18, Hexyl 1-((((((R)-1-(6-amino-9H-purin-9-yl)propan-2-yl)oxy)methyl)((1-(hexyloxy)-2-methyl-1-oxopropan-2-yl)amino)phosphoryl)amino)cyclobutane-1-carboxylate]	13 nM
CCCCCCOC(=O)C(C)(C)NP(=O)(CO[C@H](C)Cn1cnc2c(N)ncnc21)NC(C)(C)C(=O)OCC(C)(C)OC (stereo partly drawn) [Example 79, Hexyl 2-((((((R)-1-(6-amino-9H-purin-9-yl)propan-2-yl)oxy)methyl)((1-(2-methoxy-2-methylpropoxy)-2-methyl-1-oxopropan-2-yl)amino)phosphoryl)amino)-2-methylpropanoate]	271 nM
CCCCCCOC(=O)C(C)(C)NP(=O)(CO[C@H](C)Cn1cnc2c(NC(=O)OCCCCC)ncnc21)NC(C)(C)C(=O)OCCCCCC [Example 32, Dihexyl 2,2′-(((((1-(6-(((pentyloxy)carbonyl)amino)-9H-purin-9-yl)propan-2-yl)oxy)methyl)phosphoryl)bis(azanediyl))(R)-bis(2-methylpropanoate)]	> 500 nM
